Toxic doses and inconclusive results are not listed. Cut-off read from the data, not from the text of the source: active = T/C of 150% or more; inactive = T/C below 125%.
Tested on: L1210 leukemia ip in BDF1 mice, survival T/C
Experiment: NCI In Vivo Anticancer Drug Screen. Data for tumor model L1210 Leukemia (intraperitoneal) in B6D2F1 (BDF1) mice
Conditions: endpoint: mean survival time, higher = longer survival
How it was run: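 Transplantable tumor model; survival measured in treated vs vehicle control mice. Value = treated/control.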

[1] = dose: 100.0 mg/kg/injection, schedule: Q01DX001 (ip), vehicle: Klucel (hydroxypropylcellulose) (HPC)
[2] = dose: 200.0 mg/kg/injection, schedule: Q01DX001 (ip), vehicle: Klucel (hydroxypropylcellulose) (HPC)
[3] = dose: 400.0 mg/kg/injection, schedule: Q01DX001 (ip), vehicle: Klucel (hydroxypropylcellulose) (HPC)
[4] = dose: 100.0 mg/kg/injection, schedule: Q04DX002 (ip), vehicle: saline
[5] = dose: 100.0 mg/kg/injection, schedule: Q01DX001 (ip), vehicle: saline
[6] = dose: 200.0 mg/kg/injection, schedule: Q01DX001 (ip), vehicle: saline
[7] = dose: 400.0 mg/kg/injection, schedule: Q01DX001 (ip), vehicle: saline
[8] = dose: 100.0 mg/kg/injection, schedule: Q04DX003 (ip), vehicle: saline with Tween-80
[9] = dose: 100.0 mg/kg/injection, schedule: Q01DX009 (ip), vehicle: saline
[10] = dose: 100.0 mg/kg/injection, schedule: Q01DX001 (ip), vehicle: other

Measured: T/C

O=C(Oc1cccc(OC(=O)c2ccc(Cl)cc2)c1)c1ccc(Cl)cc1
inactive: [1] 100 % of control | dose: 100.0 mg/kg/injection, schedule: Q01DX009 (ip), vehicle: Klucel (hydroxypropylcellulose) (HPC) 112 % of control | [2] 100 % of control | dose: 200.0 mg/kg/injection, schedule: Q01DX009 (ip), vehicle: Klucel (hydroxypropylcellulose) (HPC) 110 % of control | [3] 93 % of control | dose: 400.0 mg/kg/injection, schedule: Q01DX009 (ip), vehicle: Klucel (hydroxypropylcellulose) (HPC) 108 % of control

c1ccc(CNCc2ccccn2)nc1
inactive: dose: 50.0 mg/kg/injection, schedule: Q04DX002 (ip), vehicle: saline 95 % of control | [4] 101 % of control

O=c1[nH]cnc2[nH]ncc12
inactive: dose: 50.0 mg/kg/injection, schedule: Q01DX001 (ip), vehicle: saline with Tween-80 95 % of control | dose: 69.0 mg/kg/injection, schedule: Q01DX015 (ip), vehicle: carboxymethylcellulose (CMC) 94 % of control | dose: 100.0 mg/kg/injection, schedule: Q01DX001 (ip), vehicle: carboxymethylcellulose (CMC) 106 % of control | dose: 100.0 mg/kg/injection, schedule: Q01DX001 (ip), vehicle: saline with Tween-80 105 % of control | [5] 101 % of control | dose: 104.0 mg/kg/injection, schedule: Q01DX015 (ip), vehicle: carboxymethylcellulose (CMC) 95 % of control | dose: 156.0 mg/kg/injection, schedule: Q01DX015 (ip), vehicle: carboxymethylcellulose (CMC) 96 % of control | dose: 200.0 mg/kg/injection, schedule: Q01DX001 (ip), vehicle: carboxymethylcellulose (CMC) 102 % of control | dose: 234.0 mg/kg/injection, schedule: Q01DX015 (ip), vehicle: carboxymethylcellulose (CMC) 94 % of control | dose: 351.0 mg/kg/injection, schedule: Q01DX015 (ip), vehicle: carboxymethylcellulose (CMC) 95 % of control

CN1C(=O)N(C)C(=O)C2(C1=O)C1(C(=O)N(C)C(=O)N(C)C1=O)C21C(=O)N(C)C(=O)N(C)C1=O
inactive: dose: 100.0 mg/kg/injection, schedule: Q04DX002 (ip), vehicle: Klucel (hydroxypropylcellulose) (HPC) 102 % of control | dose: 200.0 mg/kg/injection, schedule: Q04DX002 (ip), vehicle: Klucel (hydroxypropylcellulose) (HPC) 100 % of control | dose: 400.0 mg/kg/injection, schedule: Q04DX002 (ip), vehicle: Klucel (hydroxypropylcellulose) (HPC) 89 % of control

C=C1C(=O)OC2C1CCC(C)=C1C(=O)C=C(C)C12 (stereo unspecified)
inactive: [4] 94 % of control | dose: 200.0 mg/kg/injection, schedule: Q04DX002 (ip), vehicle: saline 97 % of control

CCOC(=O)/C(O)=C\c1cc(Cl)nnc1Cl
inactive: dose: 162.5 mg/kg/injection, schedule: Q04DX002 (ip), vehicle: Klucel (hydroxypropylcellulose) (HPC) 100 % of control | dose: 325.0 mg/kg/injection, schedule: Q04DX002 (ip), vehicle: Klucel (hydroxypropylcellulose) (HPC) 95 % of control

O=c1oc2ccccc2cc1P(=O)(O)O
inactive: dose: 50.0 mg/kg/injection, schedule: Q01DX001 (ip), vehicle: saline 91 % of control | [5] 95 % of control | [6] 95 % of control | [7] 97 % of control

CN(C)CCNC(=O)CN
inactive: [5] 102 % of control | [6] 107 % of control | [7] 107 % of control

CSC(=S)N/N=C(\C)c1ccccn1
inactive: [8] 107 % of control

O=C(O)c1cc(I)cc(I)c1
inactive: [8] 105 % of control | dose: 200.0 mg/kg/injection, schedule: Q04DX003 (ip), vehicle: saline with Tween-80 101 % of control | dose: 400.0 mg/kg/injection, schedule: Q04DX003 (ip), vehicle: saline with Tween-80 95 % of control

O=Cc1ccc(OCc2cccc([N+](=O)[O-])c2)cc1
inactive: [1] 113 % of control | [2] 100 % of control | [3] 87 % of control

O=S(=O)(O)O.[NH-]CC(N)=O.[NH-]CC(N)=O.[Ni+2]
inactive: dose: 6.25 mg/kg/injection, schedule: Q01DX009 (ip), vehicle: water 109 % of control | dose: 12.5 mg/kg/injection, schedule: Q01DX009 (ip), vehicle: water 97 % of control | dose: 25.0 mg/kg/injection, schedule: Q01DX009 (ip), vehicle: water 90 % of control

CCOC(=O)c1ncn(C2OC(CO)C(O)C2O)c1N (stereo unspecified)
inactive: dose: 12.5 mg/kg/injection, schedule: Q01DX005 (ip), vehicle: saline with Tween-80 90 % of control | dose: 25.0 mg/kg/injection, schedule: Q01DX005 (ip), vehicle: saline with Tween-80 100 % of control | dose: 50.0 mg/kg/injection, schedule: Q01DX005 (ip), vehicle: saline with Tween-80 90 % of control | dose: 100.0 mg/kg/injection, schedule: Q01DX005 (ip), vehicle: saline with Tween-80 92 % of control | dose: 200.0 mg/kg/injection, schedule: Q01DX005 (ip), vehicle: saline with Tween-80 93 % of control

COC1OC(CN(CCO)CCO)C2OC(C)(C)OC12 (stereo unspecified)
inactive: dose: 12.5 mg/kg/injection, schedule: Q04DX003 (ip), vehicle: saline 97 % of control | dose: 25.0 mg/kg/injection, schedule: Q01DX009 (ip), vehicle: saline 98 % of control | dose: 25.0 mg/kg/injection, schedule: Q04DX003 (ip), vehicle: saline 89 % of control | dose: 50.0 mg/kg/injection, schedule: Q01DX009 (ip), vehicle: saline 94 % of control | dose: 50.0 mg/kg/injection, schedule: Q04DX003 (ip), vehicle: saline 97 % of control | [9] 89 % of control | dose: 100.0 mg/kg/injection, schedule: Q04DX003 (ip), vehicle: saline 94 % of control | dose: 335.0 mg/kg/injection, schedule: Q01DX009 (ip), vehicle: saline 101 % of control

C1=Nc2c(ncnc2SCc2ccccc2)NN1
inactive: dose: 5.0 mg/kg/injection, schedule: Q01DX001 (ip), vehicle: other 100 % of control | dose: 10.0 mg/kg/injection, schedule: Q01DX001 (ip), vehicle: other 106 % of control | dose: 20.0 mg/kg/injection, schedule: Q01DX001 (ip), vehicle: other 100 % of control | dose: 40.0 mg/kg/injection, schedule: Q01DX001 (ip), vehicle: other 100 % of control | dose: 50.0 mg/kg/injection, schedule: Q01DX001 (ip), vehicle: other 113 % of control | dose: 80.0 mg/kg/injection, schedule: Q01DX001 (ip), vehicle: other 93 % of control | [10] 88 % of control

C=C(Br)CSC#N
inactive: dose: 12.5 mg/kg/injection, schedule: Q01DX009 (ip), vehicle: saline with Tween-80 93 % of control | dose: 25.0 mg/kg/injection, schedule: Q01DX009 (ip), vehicle: saline with Tween-80 102 % of control | dose: 50.0 mg/kg/injection, schedule: Q01DX009 (ip), vehicle: saline with Tween-80 89 % of control

CCC(CC)N1CCCS1(=O)=O
inactive: [9] 93 % of control | dose: 200.0 mg/kg/injection, schedule: Q01DX009 (ip), vehicle: saline 102 % of control | dose: 400.0 mg/kg/injection, schedule: Q01DX009 (ip), vehicle: saline 96 % of control

CC(C)(C)NC(=O)Nc1nccs1
inactive: dose: 100.0 mg/kg/injection, schedule: Q01DX009 (ip), vehicle: other 100 % of control | dose: 200.0 mg/kg/injection, schedule: Q01DX009 (ip), vehicle: other 107 % of control

COC(=O)Cc1cc(Cl)c2cc(C)ccc2n1
inactive: [10] 95 % of control | dose: 200.0 mg/kg/injection, schedule: Q01DX001 (ip), vehicle: other 98 % of control | dose: 400.0 mg/kg/injection, schedule: Q01DX001 (ip), vehicle: other 96 % of control

C1CCCCCC(NC2=NCCO2)CCCCC1
inactive: dose: 25.0 mg/kg/injection, schedule: Q04DX003 (ip), vehicle: saline with Tween-80 97 % of control | dose: 50.0 mg/kg/injection, schedule: Q04DX003 (ip), vehicle: saline with Tween-80 102 % of control | [8] 88 % of control

Source: PubChem BioAssay AID248 (DTP/NCI, 2004)
